From ChEMBL document CHEMBL5346941, “Design, synthesis and evaluation of novel monoamine oxidase B (MAO-B) inhibitors with improved pharmacokinetic properties for Parkinson's disease” (Eur J Med Chem, 2023)

Columns and labels:
[1] = Drug concentration in Sprague-Dawley rat brain at 5 mg/kg, ip measured after 15 mins by LC-MS/MS analysis; type: ADME, organism-based; details: read-out: Ct
[2] = Metabolic stability in dog liver microsomes assessed as intrinsic clearance at 1 uM incubated for 60 mins in presence of NADPH by LC-MS/MS analysis; type: ADME, Canis lupus familiaris, Microsome; details: read-out: CLH
[3] = Metabolic stability in human liver microsomes assessed as intrinsic clearance at 1 uM incubated for 60 mins in presence of NADPH by LC-MS/MS analysis; type: ADME, Microsome; details: read-out: CLH
CYP2C9 = CYP2C9 (Homo sapiens, UniProt P11712); experiment: Inhibition of CYP2C9 in human liver microsomes using diclofenac as substrate at 10 uM incubated for 10 mins in presence of NADPH by LC-MS/MS analysis relative to control; type: ADME, Microsome; details: probe diclofenac
[4] = Metabolic stability in monkey liver microsomes assessed as intrinsic clearance at 1 uM incubated for 60 mins in presence of NADPH by LC-MS/MS analysis; type: ADME, Macaca mulatta, Microsome; details: rhesus monkey, read-out: CLH
[5] = Cmax in fasted ICR mouse at 2 mg/kg, iv measured for 24 hrs; type: ADME, organism-based; design: time 24 hrs, dose 2 mg/kg, route iv; details: in vivo
[6] = Protein binding in rat plasma at 1 uM incubated for 5 hrs by LC-MS/MS based rapid equilibrium dialysis method; type: ADME, cell-free; details: read-out: PPB (converted)
CYP2C8 = biological target: T1, CYP2C8 (Homo sapiens, UniProt P10632); experiment: Inhibition of CYP2C8 in human liver microsomes using amodiaquine as substrate at 10 uM incubated for 45 mins in presence of NADPH by LC-MS/MS analysis relative to control; type: ADME, Microsome; details: probe amodiaquine
T1 sequence (P10632 whole entry): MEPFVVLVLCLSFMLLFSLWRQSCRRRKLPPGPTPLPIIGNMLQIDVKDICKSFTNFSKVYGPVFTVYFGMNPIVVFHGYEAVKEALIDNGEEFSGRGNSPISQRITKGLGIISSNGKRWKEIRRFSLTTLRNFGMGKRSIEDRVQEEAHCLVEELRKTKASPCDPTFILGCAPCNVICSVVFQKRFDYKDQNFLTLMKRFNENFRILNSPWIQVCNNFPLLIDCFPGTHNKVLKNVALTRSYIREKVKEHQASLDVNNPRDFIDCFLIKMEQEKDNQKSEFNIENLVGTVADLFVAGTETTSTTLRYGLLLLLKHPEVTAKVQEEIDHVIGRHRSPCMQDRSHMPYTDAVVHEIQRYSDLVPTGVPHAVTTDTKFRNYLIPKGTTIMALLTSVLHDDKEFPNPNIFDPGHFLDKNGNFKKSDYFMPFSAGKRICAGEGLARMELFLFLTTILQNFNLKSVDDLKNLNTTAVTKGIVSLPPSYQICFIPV

[7] = Metabolic stability in dog liver microsomes assessed as half life at 1 uM incubated for 60 mins in presence of NADPH by LC-MS/MS analysis; type: ADME, Canis lupus familiaris, Microsome
[8] = Drug concentration in Sprague-Dawley rat plasma at 5 mg/kg, ip measured after 15 mins by LC-MS/MS analysis; type: ADME, organism-based
CYP1A2 = biological target: T2, CYP1A2 (Homo sapiens, UniProt P05177); experiment: Inhibition of CYP1A2 in human liver microsomes using ethoxyresorufin as substrate at 10 uM incubated for 10 mins in presence of NADPH by LC-MS/MS analysis relative to control; type: ADME, Microsome; details: probe ethoxyresorufin
T2 sequence (P05177 whole entry): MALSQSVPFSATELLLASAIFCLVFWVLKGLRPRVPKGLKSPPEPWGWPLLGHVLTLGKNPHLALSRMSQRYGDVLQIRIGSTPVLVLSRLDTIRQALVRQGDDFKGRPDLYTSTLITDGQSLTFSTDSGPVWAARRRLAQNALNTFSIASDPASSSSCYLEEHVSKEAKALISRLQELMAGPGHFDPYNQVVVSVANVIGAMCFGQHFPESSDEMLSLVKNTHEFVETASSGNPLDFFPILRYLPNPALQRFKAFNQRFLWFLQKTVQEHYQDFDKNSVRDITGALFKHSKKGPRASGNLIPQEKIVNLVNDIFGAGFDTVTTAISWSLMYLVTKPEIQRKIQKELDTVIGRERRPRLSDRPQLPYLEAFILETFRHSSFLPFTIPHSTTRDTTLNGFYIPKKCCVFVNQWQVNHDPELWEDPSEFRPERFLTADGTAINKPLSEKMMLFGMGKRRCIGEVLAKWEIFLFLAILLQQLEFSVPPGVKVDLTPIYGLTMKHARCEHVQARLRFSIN

Chain of CYP2C9 (P11712 whole entry): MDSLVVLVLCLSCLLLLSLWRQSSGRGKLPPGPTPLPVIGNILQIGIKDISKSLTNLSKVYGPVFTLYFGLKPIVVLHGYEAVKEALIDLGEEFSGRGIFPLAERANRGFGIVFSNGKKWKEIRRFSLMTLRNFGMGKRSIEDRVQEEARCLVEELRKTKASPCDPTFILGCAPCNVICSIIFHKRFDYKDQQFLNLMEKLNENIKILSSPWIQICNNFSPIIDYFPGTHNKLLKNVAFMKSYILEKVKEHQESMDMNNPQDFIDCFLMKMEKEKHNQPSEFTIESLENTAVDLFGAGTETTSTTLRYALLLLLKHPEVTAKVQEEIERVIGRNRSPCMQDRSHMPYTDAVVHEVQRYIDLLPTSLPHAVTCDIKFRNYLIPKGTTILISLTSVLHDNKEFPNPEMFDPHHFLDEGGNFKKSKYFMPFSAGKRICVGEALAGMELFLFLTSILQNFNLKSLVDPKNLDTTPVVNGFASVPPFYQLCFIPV

## NC(=O)[C@@H]1C[C@H](F)CN1Cc1ccc2oc(-c3ccc(F)cc3)cc2c1
[1]
  concentration at 0.25 h: 5560 ng/g
[2]
  CLint scaled at 1 µM: 7.5 mL/min/kg
[3]
  CLint scaled at 1 µM: 2.5 mL/min/kg
CYP2C9
  inhibition at 10 min, 10 µM: 8.05%
[4]
  CLint scaled at 1 µM: 4.1 mL/min/kg
[5]
  Cmax: 900 ng/mL
[6]
  fraction unbound at 5 h, 1 µM: 0.0062
CYP2C8
  inhibition at 0.75 h, 10 µM: 5.74%
[7]
  half-life at 1 µM: 2.45 h
[8]
  concentration at 0.25 h: 536 ng/mL
CYP1A2
  inhibition at 10 min, 10 µM: 32.6%
